Assay results reported in patent US20090312521A1 (priority 2004, published 2009).
In brackets after ≈: the same amount, converted by molar mass. Non-standard residues stand in square brackets, D forms with d. Residues, ends and D or L forms follow the SMILES beside them. β3hY = N[C@H](CC(=O)O)Cc1ccc(O)cc1; NMeS = CN[C@@H](CO)C(=O)O; β3hS = N[C@@H](CO)CC(=O)O; Ava = NCCCCC(=O)O; GABA = NCCCC(=O)O; Sar = CNCC(=O)O

Tested on: E. coli ATCC 11775
Format: cell-based
Conditions: ATCC 11775, 24 h
Description: Lyophilized peptides were dissolved in NB to give a concentration of 400 μM and filtered using 0.22 μm filter discs (Millex GV, Durapore). An overnight culture in NB was adjusted to 5×10^6 CFU/mL and inoculated into the micro titer plate wells (10 μL) containing each 100 μL of a serial 2-fold dilution (200-0.4 μM) of the tested peptide in NB. Plates were incubated while gently shaking at 37 ° C. for 24 h. Next, 80 μL suspension of each well was transported into a flat-bottom 96-well plate (Costar). The absorbance was measured at 600 nm using a μQuant micro plate spectrophotometer (Bio-Tek Instruments). All peptides were measured in quadruplo. The peptide with sequence […] (see Otvos Jr, […]; Otvos, B. I.; Hoffmann, […].; Wade, […].; Bulet, P. Protein Sci. 2000, 9, 742) was used as negative control.

MIC [µM] | Compound
25 (≈ 55.3 µg/mL) | CC[C@H](C)[C@H](NC(=O)[C@@H]1CCCN1C(=O)[C@H](CCCNC(=N)N)NC(=O)[C@@H]1CCCN1C(=O)[C@H](Cc1c[nH]cn1)NC(=O)[C@H](CO)NC(=O)[C@@H](NC(=O)[C@@H]1CCCN1C(=O)[C@H](CCCNC(=N)N)NC(=O)[C@@H]1CCCN1C(=O)[C@H](CO)N(C)C(=O)[C@H](Cc1ccc(O)cc1)NC(=O)[C@@H]1CCCN1C(=O)[C@H](CCCNC(=N)N)NC(=O)[C@@H]1CCCN1C(=O)[C@H](CCCCN)NC(=O)CN)[C@@H](C)O)C(=O)N[C@@H](CCCNC(=N)N)C(=O)N[C@H](C(=O)O)C(C)C [Peptide 2, GKPRP Y^MeSPRP TSHPR PIRV] (H-GKPRPY[NMeS]PRPTSHPRPIRV-OH)
3.1 (≈ 6.77 µg/mL) | CC[C@H](C)[C@H](NC(=O)[C@@H]1CCCN1C(=O)[C@H](CCCNC(=N)N)NC(=O)[C@@H]1CCCN1C(=O)[C@H](Cc1c[nH]cn1)NC(=O)[C@H](CO)NC(=O)[C@@H](NC(=O)[C@@H]1CCCN1C(=O)[C@H](CCCNC(=N)N)NC(=O)[C@@H]1CCCN1C(=O)[C@H](CO)NC(=O)[C@H](Cc1ccccc1)NC(=O)[C@@H]1CCCN1C(=O)[C@H](CCCNC(=N)N)NC(=O)[C@@H]1CCCN1C(=O)[C@H](CCCCN)NC(=O)CN)[C@@H](C)O)C(=O)N[C@@H](CCCNC(=N)N)C(=O)N[C@H](C(=O)O)C(C)C [Peptide 3, GKPRP FSPRP TSHPR PIRV] (H-GKPRPFSPRPTSHPRPIRV-OH; N-terminus assumed)
3.1 (≈ 6.81 µg/mL) | CC[C@H](C)[C@H](NC(=O)[C@@H]1CCCN1C(=O)[C@H](CCCNC(=N)N)NC(=O)[C@@H]1CCCN1C(=O)[C@H](Cc1c[nH]cn1)NC(=O)[C@H](CO)NC(=O)[C@@H](NC(=O)[C@@H]1CCCN1C(=O)[C@H](CCCNC(=N)N)NC(=O)[C@@H]1CCCN1C(=O)[C@@H](NC(=O)[C@H](Cc1ccccc1)NC(=O)[C@@H]1CCCN1C(=O)[C@H](CCCNC(=N)N)NC(=O)[C@@H]1CCCN1C(=O)[C@H](CCCCN)NC(=O)CN)[C@@H](C)O)[C@@H](C)O)C(=O)N[C@@H](CCCNC(=N)N)C(=O)N[C@H](C(=O)O)C(C)C [Peptide 5, GKPRP FTPRP TSHPR PIRV] (H-GKPRPFTPRPTSHPRPIRV-OH; N-terminus assumed)
6.3 (≈ 13.9 µg/mL) | CC[C@H](C)[C@H](NC(=O)[C@@H]1CCCN1C(=O)[C@H](CCCNC(=N)N)NC(=O)[C@@H]1CCCN1C(=O)[C@H](Cc1c[nH]cn1)NC(=O)[C@H](CO)NC(=O)[C@@H](NC(=O)[C@@H]1CCCN1C(=O)[C@H](CCCNC(=N)N)NC(=O)[C@@H]1CCCN1C(=O)[C@H](CO)NC(=O)[C@@H](Cc1ccc(O)cc1)NC(=O)[C@@H]1CCCN1C(=O)[C@H](CCCNC(=N)N)NC(=O)[C@@H]1CCCN1C(=O)[C@H](CCCCN)NC(=O)CN)[C@@H](C)O)C(=O)N[C@@H](CCCNC(=N)N)C(=O)N[C@H](C(=O)O)C(C)C [Peptide 6, GKPRP DYSPRP TSHPR PIRV] (H-GKPRP[dY]SPRPTSHPRPIRV-OH; N-terminus assumed)
3.1 (≈ 6.86 µg/mL) | CC[C@H](C)[C@H](NC(=O)[C@@H]1CCCN1C(=O)[C@H](CCCNC(=N)N)NC(=O)[C@@H]1CCCN1C(=O)[C@H](Cc1c[nH]cn1)NC(=O)[C@H](CO)NC(=O)[C@@H](NC(=O)[C@@H]1CCCN1C(=O)[C@H](CCCNC(=N)N)NC(=O)[C@@H]1CCCN1C(=O)[C@H](CO)NC(=O)C[C@H](Cc1ccc(O)cc1)NC(=O)[C@@H]1CCCN1C(=O)[C@H](CCCNC(=N)N)NC(=O)[C@@H]1CCCN1C(=O)[C@H](CCCCN)NC(=O)CN)[C@@H](C)O)C(=O)N[C@@H](CCCNC(=N)N)C(=O)N[C@H](C(=O)O)C(C)C [Peptide 9, GKPRP βYSPRP TSHPR PIRV] (H-GKPRP[β3hY]SPRPTSHPRPIRV-OH)
3.1 (≈ 6.86 µg/mL) | CC[C@H](C)[C@H](NC(=O)[C@@H]1CCCN1C(=O)[C@H](CCCNC(=N)N)NC(=O)[C@@H]1CCCN1C(=O)[C@H](Cc1c[nH]cn1)NC(=O)[C@H](CO)NC(=O)[C@@H](NC(=O)[C@@H]1CCCN1C(=O)[C@H](CCCNC(=N)N)NC(=O)[C@@H]1CCCN1C(=O)C[C@H](CO)NC(=O)[C@H](Cc1ccc(O)cc1)NC(=O)[C@@H]1CCCN1C(=O)[C@H](CCCNC(=N)N)NC(=O)[C@@H]1CCCN1C(=O)[C@H](CCCCN)NC(=O)CN)[C@@H](C)O)C(=O)N[C@@H](CCCNC(=N)N)C(=O)N[C@H](C(=O)O)C(C)C [Peptide 10, GKPRP YβSPRP TSHPR PIRV] (H-GKPRPY[β3hS]PRPTSHPRPIRV-OH)
12.5 (≈ 27.8 µg/mL) | CC[C@H](C)[C@H](NC(=O)[C@@H]1CCCN1C(=O)[C@H](CCCNC(=N)N)NC(=O)[C@@H]1CCCN1C(=O)[C@H](Cc1c[nH]cn1)NC(=O)[C@H](CO)NC(=O)[C@@H](NC(=O)[C@@H]1CCCN1C(=O)[C@H](CCCNC(=N)N)NC(=O)[C@@H]1CCCN1C(=O)C[C@H](CO)NC(=O)C[C@H](Cc1ccc(O)cc1)NC(=O)[C@@H]1CCCN1C(=O)[C@H](CCCNC(=N)N)NC(=O)[C@@H]1CCCN1C(=O)[C@H](CCCCN)NC(=O)CN)[C@@H](C)O)C(=O)N[C@@H](CCCNC(=N)N)C(=O)N[C@H](C(=O)O)C(C)C [Peptide 11, GKPRP βYβSPRP TSHPR PIRV] (H-GKPRP[β3hY][β3hS]PRPTSHPRPIRV-OH)
6.3 (≈ 14.2 µg/mL) | CC[C@H](C)[C@H](NC(=O)[C@@H]1CCCN1C(=O)[C@H](CCCNC(=N)N)NC(=O)[C@@H]1CCCN1C(=O)[C@H](Cc1c[nH]cn1)NC(=O)[C@H](CO)NC(=O)[C@@H](NC(=O)[C@@H]1CCCN1C(=O)[C@H](CCCNC(=N)N)NC(=O)[C@@H]1CCCN1C(=O)[C@@H](NC(=O)[C@H](Cc1ccc(O)cc1)NC(=O)[C@@H]1CCCN1C(=O)[C@H](CCCNC(=N)N)NC(=O)[C@@H]1CCCN1C(=O)[C@H](CCCCN)NC(=O)CCCCN)[C@@H](C)O)[C@@H](C)O)C(=O)N[C@@H](CCCNC(=N)N)C(=O)N[C@H](C(=O)O)C(C)C [Peptide 12, AvaKPRP YTPRP TSHPR PIRV] (H-[Ava]KPRPYTPRPTSHPRPIRV-OH; N-terminus assumed)
6.3 (≈ 14.1 µg/mL) | CC[C@H](C)[C@H](NC(=O)[C@@H]1CCCN1C(=O)[C@H](CCCNC(=N)N)NC(=O)[C@@H]1CCCN1C(=O)[C@H](Cc1c[nH]cn1)NC(=O)[C@H](CO)NC(=O)[C@@H](NC(=O)[C@@H]1CCCN1C(=O)[C@H](CCCNC(=N)N)NC(=O)[C@@H]1CCCN1C(=O)[C@@H](NC(=O)[C@H](Cc1ccc(O)cc1)NC(=O)[C@@H]1CCCN1C(=O)[C@H](CCCNC(=N)N)NC(=O)[C@@H]1CCCN1C(=O)[C@H](CCCCN)NC(=O)CCCN)[C@@H](C)O)[C@@H](C)O)C(=O)N[C@@H](CCCNC(=N)N)C(=O)N[C@H](C(=O)O)C(C)C [Peptide 13, AbuKPRP YTPRP TSHPR PIRV] (H-[GABA]KPRPYTPRPTSHPRPIRV-OH; N-terminus assumed)
6.3 (≈ 14 µg/mL) | CC[C@H](C)[C@H](NC(=O)[C@@H]1CCCN1C(=O)[C@H](CCCNC(=N)N)NC(=O)[C@@H]1CCCN1C(=O)[C@H](Cc1c[nH]cn1)NC(=O)[C@H](CO)NC(=O)[C@@H](NC(=O)[C@@H]1CCCN1C(=O)[C@H](CCCNC(=N)N)NC(=O)[C@@H]1CCCN1C(=O)[C@@H](NC(=O)[C@H](Cc1ccc(O)cc1)NC(=O)[C@@H]1CCCN1C(=O)[C@H](CCCNC(=N)N)NC(=O)[C@@H]1CCCN1C(=O)[C@H](CCCCN)NC(=O)CNC)[C@@H](C)O)[C@@H](C)O)C(=O)N[C@@H](CCCNC(=N)N)C(=O)N[C@H](C(=O)O)C(C)C [Peptide 15, SarKPRP YTPRP TSHPR PIRV] (H-[Sar]KPRPYTPRPTSHPRPIRV-OH; N-terminus assumed)

Compound | MIC [µM]
CC[C@H](C)[C@H](NC(=O)[C@@H]1CCCN1C(=O)[C@H](CCCNC(=N)N)NC(=O)[C@@H]1CCCN1C(=O)[C@H](Cc1cnc[nH]1)NC(=O)[C@H](CO)NC(=O)[C@@H](NC(=O)[C@@H]1CCCN1C(=O)[C@H](CCCNC(=N)N)NC(=O)[C@@H]1CCCN1C(=O)[C@H](CO)NC(=O)[C@H](Cc1ccc(O)cc1)NC(=O)[C@@H]1CCCN1C(=O)[C@H](CCCNC(=N)N)NC(=O)[C@@H]1CCCN1C(=O)[C@H](CCCCN)NC(=O)CN)[C@@H](C)O)C(=O)N[C@@H](CCCNC(=N)N)C(=O)N[C@H](C(=O)O)C(C)C [Peptide 1, GKPRP YSPRP TSHPR PIRV, reference compound] (H-GKPRPYSPRPTSHPRPIRV-OH) | 6.3 (≈ 13.9 µg/mL)
